Data as given in patent publication US9556179B2 (BRISTOL-MYERS SQUIBB COMPANY, priority 2012, dated 2017).

Legend:
CK1ε = CK1ε (Homo sapiens (Human), UniProt P49674); assay: CK1ε kinase assay (Caliper LABCHIP electrophoretic separation of fluoresceinated peptide substrate and product); type: biochemical; settings: 200 pM enzyme, 50 μM ATP, 22 hours at room temperature
Description: (§1) CK1ε and CK1δ Kinase Assays
(§2) The kinase assay was performed in V-bottom 384-well plates. […] The reaction was incubated at room temperature for 22 hours and terminated by adding 45 μl of 35 mM EDTA to each sample. The reaction mixture was analyzed on the Caliper LABCHIP®3000 (Caliper, Hopkinton, Mass.) by electrophoretic separation of the unphosphorylated substrate and phosphorylated product. […] Compounds were dissolved at 10 mM in dimethylsulfoxide (DMSO) and evaluated at eleven concentrations. IC50 values were derived by non-linear regression analysis.

CK1δ = CK1δ (Homo sapiens (Human), UniProt P48730); assay: CK1δ kinase assay (Caliper LABCHIP electrophoretic separation of fluoresceinated peptide substrate and product); type: biochemical; settings: 200 pM enzyme, 50 μM ATP, 22 hours at room temperature
Description: as §1, §2

Chain of CK1ε (P49674 whole entry): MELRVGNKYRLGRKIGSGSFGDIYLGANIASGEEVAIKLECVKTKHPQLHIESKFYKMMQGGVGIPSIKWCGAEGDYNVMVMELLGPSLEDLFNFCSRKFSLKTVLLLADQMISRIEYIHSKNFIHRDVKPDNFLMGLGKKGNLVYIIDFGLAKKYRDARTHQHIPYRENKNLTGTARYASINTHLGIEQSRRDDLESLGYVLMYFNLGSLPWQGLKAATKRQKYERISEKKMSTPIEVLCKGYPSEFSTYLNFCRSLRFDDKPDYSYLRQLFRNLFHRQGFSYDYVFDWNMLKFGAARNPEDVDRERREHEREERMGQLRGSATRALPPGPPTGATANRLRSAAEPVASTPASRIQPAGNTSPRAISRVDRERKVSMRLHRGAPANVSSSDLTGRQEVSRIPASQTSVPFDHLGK
Chain of CK1δ (P48730 whole entry): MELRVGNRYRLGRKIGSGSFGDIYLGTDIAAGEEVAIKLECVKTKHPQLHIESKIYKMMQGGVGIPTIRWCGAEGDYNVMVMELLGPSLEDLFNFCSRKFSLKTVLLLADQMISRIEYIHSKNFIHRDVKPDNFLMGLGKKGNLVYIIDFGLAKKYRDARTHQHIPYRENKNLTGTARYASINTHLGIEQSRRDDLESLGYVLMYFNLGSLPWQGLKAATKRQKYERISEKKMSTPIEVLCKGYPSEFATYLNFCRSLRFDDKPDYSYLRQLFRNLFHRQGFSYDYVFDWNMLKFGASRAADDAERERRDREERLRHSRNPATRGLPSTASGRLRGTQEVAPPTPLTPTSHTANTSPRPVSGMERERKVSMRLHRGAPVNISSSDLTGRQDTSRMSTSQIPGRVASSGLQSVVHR

SMILES	IC50 (CK1ε) [nM]	IC50 (CK1δ) [nM]
O=C(Nc1cn2nc(-c3c(-c4ccc(F)cc4)ncn3C3CCN(CCN4CCOCC4)CC3)ccc2n1)c1ccnc(F)c1 [Compound 23, 2-fluoro-N-(6-(4-(4-fluorophenyl)-1-(1-(2-morpholinoethyl)piperidin-4-yl)-1H-imidazol-5-yl)imidazo[1,2-b]pyridazin-2-yl)isonicotinamide]	0.675	0.183
CSCCCN1CCC(n2cnc(-c3ccc(F)cc3)c2-c2ccc3nc(NC(=O)c4ccnc(F)c4)cn3n2)CC1 [Compound 26, 2-fluoro-N-(6-(4-(4-fluorophenyl)-1-(1-(3-(methylthio)propyl)piperidin-4-yl)-1H-imidazol-5-yl)imidazo[1,2-b]pyridazin-2-yl)isonicotinamide]	2.23	0.449
Cn1ccnc1CN1CCC(n2cnc(-c3ccc(F)cc3)c2-c2ccc3nc(NC(=O)c4ccnc(F)c4)cn3n2)CC1 [Compound 27, 2-fluoro-N-(6-(4-(4-fluorophenyl)-1-(1-((1-methyl-1H-imidazol-2-yl)methyl)piperidin-4-yl)-1H-imidazol-5-yl)imidazol[1,2-b]pyridazin-2-yl)isonicotinamide]	1.13	0.265
O=C(Nc1cn2nc(-c3c(-c4ccc(F)cc4)ncn3C3CCN(CC4CC4)CC3)ccc2n1)c1ccnc(F)c1 [Compound 28, N-(6-(1-(1-(cyclopropylmethyl)piperidin-4-yl)-4-(4-fluorophenyl)-1H-imidazol-5-yl)imidazo[1,2-6]pyridazin-2-yl)-2-fluoroisonicotinamide]	1.27	0.207
O=C(Nc1cn2nc(-c3c(-c4ccc(F)cc4)ncn3C3CCN(CC4C[C@@H]5CC[C@H]4C5)CC3)ccc2n1)c1ccnc(F)c1 (stereo partly drawn) [Compound 31, N-(6-(1-(1-((1S,4R)-bicyclo[2.2.1]heptan-2-ylmethyl)piperidin-4-yl)-4-(4-fluorophenyl)-1H-imidazol-5-yl)imidazo[1,2-6]pyridazin-2-yl)-2-fluoroisonicotinamide]	11.2	0.742
CC(C)CCN1CCC(n2cnc(-c3ccc(F)cc3)c2-c2ccc3nc(NC(=O)c4ccnc(F)c4)cn3n2)CC1 [Compound 32, 2-fluoro-N-(6-(4-(4-fluorophenyl)-1-(1-isopentylpiperidin-4-yl)-1H-imidazol-5-yl)imidazo[1,2-b]pyridazin-2-yl)isonicotinamide]	10.7	0.602
O=C(Nc1cn2nc(-c3c(-c4ccc(F)cc4)ncn3C3CCN(CCCF)CC3)ccc2n1)c1ccnc(F)c1 [Compound 33, 2-fluoro-N-(6-(4-(4-fluorophenyl)-1-(1-(3-fluoropropyl)piperidin-4-yl)-1H-imidazol-5-yl)imidazo[1,2-b]pyridazin-2-yl)isonicotinamide]	1.9	0.378
COCCN1CCC(n2cnc(-c3ccc(F)cc3)c2-c2ccc3nc(NC(=O)c4ccnc(F)c4)cn3n2)CC1 [Compound 34, 2-fluoro-N-(6-(4-(4-fluorophenyl)-1-(1-(2-methoxyethyl)piperidin-4-yl)-1H-imidazol-5-yl)imidazo[1,2-b]pyridazin-2-yl)isonicotinamide]	12.4	0.136
O=C(Nc1cn2nc(-c3c(-c4ccc(F)cc4)ncn3C3CCN(CC(F)(F)F)CC3)ccc2n1)c1ccnc(F)c1 [Compound 35, 2-fluoro-N-(6-(4-(4-fluorophenyl)-1-(1-(2,2,2-trifluoroethyl)piperidin-4-yl)-1H-imidazol-5-yl)imidazo[1,2-6]pyridazin-2-yl)isonicotinamide]	7.22	0.527
N#CCCN1CCC(n2cnc(-c3ccc(F)cc3)c2-c2ccc3nc(NC(=O)c4ccnc(F)c4)cn3n2)CC1 [Compound 36, N-(6-(1-(1-(2-cyanoethyl)piperidin-4-yl)-4-(4-fluorophenyl)-1H-imidazol-5-yl)imidazo[1,2-b]pyridazin-2-yl)-2-fluoroisonicotinamide]	1.58	0.197
O=C(Nc1cn2nc(-c3c(-c4ccc(F)cc4)ncn3C3CCN(C[C@@H](O)C(F)(F)F)CC3)ccc2n1)c1ccnc(F)c1 [Compound 37, (R)-2-fluoro-N-(6-(4-(4-fluorophenyl)-1-(1-(3,3,3-trifluoro-2-hydroxypropyl)piperidin-4-yl)-1H-imidazol-5-yl)imidazo[1,2-b]pyridazin-2-yl)isonicotinamide]	1.27	0.296
O=C(Nc1cn2nc(-c3c(-c4ccc(F)cc4)ncn3C3CCN(C[C@H](O)C(F)(F)F)CC3)ccc2n1)c1ccnc(F)c1 [Compound 38, (S)-2-fluoro-N-(6-(4-(4-fluorophenyl)-1-(1-(3,3,3-trifluoro-2-hydroxypropyl)piperidin-4-yl)-1H-imidazol-5-yl)imidazo[1,2-b]pyridazin-2-yl)isonicotinamide]	0.305	0.292
O=C(Nc1cn2nc(-c3c(-c4ccc(F)cc4)ncn3C3CCN(C(=O)c4ccon4)CC3)ccc2n1)c1ccnc(F)c1 [Compound 39, 2-fluoro-N-(6-(4-(4-fluorophenyl)-1-(1-(isoxazole-3-carbonyl)piperidin-4-yl)-1H-imidazol-5-yl)imidazo[1,2-b]pyridazin-2-yl)isonicotinamide]	2.22	1.93
NCC(=O)N1CCC(n2cnc(-c3ccc(F)cc3)c2-c2ccc3nc(NC(=O)c4ccnc(F)c4)cn3n2)CC1 [Compound 40, N-(6-(1-(1-(2-aminoacetyl)piperidin-4-yl)-4-(4-fluorophenyl)-1H-imidazol-5-yl)imidazo[1,2-b]pyridazin-2-yl)-2-fluoroisonicotinamide]	0.984	0.085
O=C(Nc1cn2nc(-c3c(-c4ccc(F)cc4)ncn3C3CCN(C(=O)CC(F)(F)F)CC3)ccc2n1)c1ccnc(F)c1 [Compound 42, 2-fluoro-N-(6-(4-(4-fluorophenyl)-1-(1-(3,3,3-trifluoropropanoyl)piperidin-4-yl)-1H-imidazol-5-yl)imidazo[1,2-b]pyridazin-2-yl)isonicotinamide]	2.93	2.79
O=C(Nc1cn2nc(-c3c(-c4ccc(F)cc4)ncn3C3CCN(C(=O)c4cscn4)CC3)ccc2n1)c1ccnc(F)c1 [Compound 44, 2-fluoro-N-(6-(4-(4-fluorophenyl)-1-(1-(thiazole-4-carbonyl)piperidin-4-yl)-1H-imidazol-5-yl)imidazo[1,2-b]pyridazin-2-yl)isonicotinamide]	1.23	0.295
O=C(Nc1cn2nc(-c3c(-c4ccc(F)cc4)ncn3C3CCN(C(=O)c4cc(C5CC5)on4)CC3)ccc2n1)c1ccnc(F)c1 [Compound 45, N-(6-(1-(1-(5-cyclopropylisoxazole-3-carbonyl)piperidin-4-yl)-4-(4-fluorophenyl)-1H-imidazol-5-yl)imidazo[1,2-b]pyridazin-2-yl)-2-fluoroisonicotinamide]	16.4	1.98
N#CCC(=O)N1CCC(n2cnc(-c3ccc(F)cc3)c2-c2ccc3nc(NC(=O)c4ccnc(F)c4)cn3n2)CC1 [Compound 46, N-(6-(1-(1-(2-cyanoacetyl)piperidin-4-yl)-4-(4-fluorophenyl)-1H-imidazol-5-yl)imidazo[1,2-b]pyridazin-2-yl)-2-fluoroisonicotinamide]	0.743	0.198
COCC(=O)N1CCC(n2cnc(-c3ccc(F)cc3)c2-c2ccc3nc(NC(=O)c4ccnc(F)c4)cn3n2)CC1 [Compound 47, 2-fluoro-N-(6-(4-(4-fluorophenyl)-1-(1-(2-methoxyacetyl)piperidin-4-yl)-1H-imidazol-5-yl)imidazo[1,2-b]pyridazin-2-yl)isonicotinamide]	1.1	0.225
O=C(Nc1cn2nc(-c3c(-c4ccc(F)cc4)ncn3C3CCN(C(=O)c4ccno4)CC3)ccc2n1)c1ccnc(F)c1 [Compound 48, 2-fluoro-N-(6-(4-(4-fluorophenyl)-1-(1-(isoxazole-5-carbonyl)piperidin-4-yl)-1H-imidazol-5-yl)imidazo[1,2-b]pyridazin-2-yl)isonicotinamide]	1.45	0.22
O=C(Nc1cn2nc(-c3c(-c4ccc(F)cc4)ncn3C3CCN(C(=O)C4(C(F)(F)F)CCC4)CC3)ccc2n1)c1ccnc(F)c1 [Compound 49, 2-fluoro-N-(6-(4-(4-fluorophenyl)-1-(1-(1-(trifluoromethyl)cyclobutanecarbonyl)piperidin-4-yl)-1H-imidazol-5-yl)imidazo[1,2-b]pyridazin-2-yl)isonicotinamide]	7.33	1.06
O=C(Nc1cn2nc(-c3c(-c4ccc(F)cc4)ncn3C3CCN(C(=O)c4ccsn4)CC3)ccc2n1)c1ccnc(F)c1 [Compound 50, 2-fluoro-N-(6-(4-(4-fluorophenyl)-1-(1-(isothiazole-3-carbonyl)piperidin-4-yl)-1H-imidazol-5-yl)imidazo[1,2-b]pyridazin-2-yl)isonicotinamide]	1.1	0.278
Cc1cc(C(=O)N2CCC(n3cnc(-c4ccc(F)cc4)c3-c3ccc4nc(NC(=O)c5ccnc(F)c5)cn4n3)CC2)no1 [Compound 51, 2-fluoro-N-(6-(4-(4-fluorophenyl)-1-(1-(5-methylisoxazole-3-carbonyl)piperidin-4-yl)-1H-imidazol-5-yl)imidazo[1,2-b]pyridazin-2-yl)isonicotinamide]	2.58	0.24
N#Cc1ccc(C(=O)N2CCC(n3cnc(-c4ccc(F)cc4)c3-c3ccc4nc(NC(=O)c5ccnc(F)c5)cn4n3)CC2)cc1 [Compound 52, N-(6-(1-(1-(4-cyanobenzoyl)piperidin-4-yl)-4-(4-fluorophenyl)-1H-imidazol-5-yl)imidazo[1,2-b]pyridazin-2-yl)-2-fluoroisonicotinamide]	1.44	0.347
